According to patent US5141926A, “Erythromycin derivatives” (Abbott Laboratories, priority 1990, dated 1992):
In brackets after ≈: the same amount, converted by molar mass. Like-named read-outs stand apart in the source and are kept apart here. One block for each compound: values may come before it.

Legend:
[1] = tested on: murine infections of Staphylococci and Streptococci; experiment: Acute mouse protection test, overall result; assay type: in vivo, female CF-1 mice; conditions: orally administered
Description: (§1) The in vivo activity of 6-deoxyerythromycin A was evaluated using the acute mouse protection test. Mouse mortality was used to calcualte an ED50 value, i.e., the dose of drug required to protect 50% of the test animals against death due to inoculum challenge.
(§2) The acute mouse protection test was conducted as described by Fernandes, et al. (Antimicrob. Agents Chemother. 29:201-208(1986)) on female CF-1 mice weighing 20-25 grams. The mice were injected intraperitoneally with bacterial suspensions at a concentration 100 times that producing an LD50 response. 6-Deoxyerythromycin A or erythromycin A were administered orally at 1 and 5 hours post-infection. The median effective doses for the cumulative mortalities on the sixth day after infection were calculated using a trimmed logit analysis (Hamilton, et. al., Environ Sci. Technol. 11:714-719 (1977)).

[2] = tested on: Staphylococcus aureus NCTC 10649; experiment: Agar plate dilution MIC; assay type: cell-based
Description: (§3) 6-Deoxyerythromycins A, B and C and 6-deoxy-15-norerythromycin B were tested for antibacterial activity using a standard agar plate dilution method in brain heart infusion broth. Erythromycin A was utilized as a control.

[3] = tested on: Micrococcus luteus ATCC 9341; experiment: Agar plate dilution MIC; assay type: cell-based
Description: as §3

[4] = tested on: Enterococcus faecium ATCC 8043; experiment: Agar plate dilution MIC; assay type: cell-based
Description: as §3

[5] = tested on: Staphylococcus epidermis 3519; experiment: Agar plate dilution MIC; assay type: cell-based; conditions: brain heart infusion broth
Description: as §3

[6] = tested on: Streptococcus agalactiae CMX 508; experiment: Agar plate dilution MIC; assay type: cell-based
Description: as §3

[7] = tested on: Staphylococcus aureus ATCC 6538P; experiment: Agar plate dilution MIC; assay type: cell-based; conditions: ATCC6538P
Description: as §3

[8] = tested on: Staphylococcus aureus CMX 553; experiment: Agar plate dilution MIC; assay type: cell-based
Description: as §3

[9] = tested on: Streptococcus pyogenes EES61; experiment: Agar plate dilution MIC; assay type: cell-based
Description: as §3

Eschericha coli SS = experiment: Agar plate dilution MIC; assay type: cell-based; conditions: brain heart infusion broth
Description: as §3

Escherichia coli JUHL = experiment: Agar plate dilution MIC; assay type: cell-based
Description: as §3

physchem = conditions: citric acid solution, pH 2.2
Description: The relative acid stability of one of the compounds of the present invention was compared to that of erythromycin A. 11.8 mg of 6-deoxyerythromycin A was suspended in citric acid solution (pH 2.2) and allowed to remain at 37° C. for 8 hours. Aliquots were removed at 2, 5, 10, and 20 minutes and at 1, 2, 3, 4, 5, 6 and 8 hours. Degradation was quenced by adjusting each aliquot to pH 9.6 with 7.5 N NH4 OH, followed by extraction with methylene chloride.
10.5 mg of erythromycin A was identically suspended in critic acid solution (pH 2.0) and allowed to remain at 37° C. for 10 minutes. Aliquots were removed at 2, 5 and 10 minutes. Degradation was quenched by adjusting each aliquot to pH 9.6 with 7.5 N NH4 OH, followed by extraction with methylene chloride.

[10] = tested on: Streptococcus pyogenes C203; experiment: Acute mouse protection test; assay type: in vivo, female CF-1 mice; conditions: read-out: ED50 (Dose Providing 50% Survival)
Description: as §1, §2

[11] = tested on: Streptococcus pneumoniae 6303; experiment: Acute mouse protection test; assay type: in vivo, female CF-1 mice; conditions: read-out: ED50 (Dose Providing 50% Survival)
Description: as §1, §2

[12] = tested on: Staphylococcus aureus 10649; experiment: Acute mouse protection test; assay type: in vivo, female CF-1 mice; conditions: read-out: ED50 (Dose Providing 50% Survival)
Description: as §1, §2

[13] = NCTC10649, Table 4, brain heart infusion broth, read-out: MIC value
[14] = ATCC9341, Table 4, brain heart infusion broth, read-out: MIC value
[15] = ATCC8043, Table 4, brain heart infusion broth, read-out: MIC value
[16] = Staphylococcus, 3519, Table 4, read-out: MIC value
[17] = CMX508, Table 4, brain heart infusion broth, read-out: MIC value
[18] = Table 4, brain heart infusion broth, read-out: MIC value
[19] = CMX553, Table 4, brain heart infusion broth, read-out: MIC value
[20] = EES61, Table 4, brain heart infusion broth, read-out: MIC value
[21] = Table 4, brain heart infusion broth
[22] = NCTC10649, Table 5, brain heart infusion broth, read-out: MIC value
[23] = ATCC9341, Table 5, brain heart infusion broth, read-out: MIC value
[24] = ATCC8043, Table 5, brain heart infusion broth, read-out: MIC value
[25] = Staphylococcus, 3519, Table 5, read-out: MIC value
[26] = CMX508, Table 5, brain heart infusion broth, read-out: MIC value
[27] = Table 5, brain heart infusion broth, read-out: MIC value
[28] = CMX553, Table 5, brain heart infusion broth, read-out: MIC value
[29] = EES61, Table 5, brain heart infusion broth, read-out: MIC value
[30] = Table 5, brain heart infusion broth

Compound: CC[C@H]1OC(=O)[C@H](C)[C@@H](O[C@H]2C[C@@](C)(OC)[C@@H](O)[C@H](C)O2)[C@H](C)[C@@H](O[C@@H]2O[C@H](C)C[C@H](N(C)C)[C@H]2O)[C@@H](C)C[C@@H](C)C(=O)[C@H](C)[C@@H](O)[C@]1(C)O [6-Deoxyerythromycin A]
effectiveness compared with erythromycin A [1]: as effective as erythromycin A
MIC [2, 13]: 1 µg/mL (≈ 1.39 µM)
MIC [3, 14]: 0.06 µg/mL (≈ 0.0836 µM)
MIC [4, 15]: 0.25 µg/mL (≈ 0.348 µM)
MIC [5, 16]: 1 µg/mL (≈ 1.39 µM)
MIC [6, 17]: 0.12 µg/mL (≈ 0.167 µM)
MIC [7, 18]: 1 µg/mL (≈ 1.39 µM)
MIC [8, 19]: 0.5 µg/mL (≈ 0.696 µM)
MIC [9, 20]: 0.25 µg/mL (≈ 0.348 µM)
MIC (Eschericha coli SS; Table 4): 2 µg/mL (≈ 2.79 µM)
MIC (Escherichia coli JUHL; [21]): > 128 µg/mL
remaining at 4 h (physchem): > 50%
remaining at 8 h (physchem): ~40%
ED50 ([10]; C203, 144 h, oral, 1 and 5 hours post-infection, intraperitoneal inoculum 100 times LD50, mortality on sixth day): 32.4 mg/kg
ED50 ([11]; Streptococcus pneumoniae, 6303, 144 h, oral, 1 and 5 hours post-infection, intraperitoneal inoculum 100 times LD50, mortality on sixth day): 24.9 mg/kg
ED50 ([12]; Staphylococcus aureus, 10649, 144 h, oral, 1 and 5 hours post-infection, intraperitoneal inoculum 100 times LD50, mortality on sixth day): 90.8 mg/kg

MIC [2, 22]: 1 µg/mL (≈ 1.42 µM)
MIC [3, 23]: 0.12 µg/mL (≈ 0.171 µM)
MIC [4, 24]: 0.5 µg/mL (≈ 0.712 µM)
MIC [5, 25]: 1 µg/mL (≈ 1.42 µM)
MIC [6, 26]: 0.25 µg/mL (≈ 0.356 µM)
MIC [7, 27]: 1 µg/mL (≈ 1.42 µM)
MIC [8, 28]: 1 µg/mL (≈ 1.42 µM)
MIC [9, 29]: 0.12 µg/mL (≈ 0.171 µM)
MIC (Eschericha coli SS; Table 5): 4 µg/mL (≈ 5.7 µM)
MIC (Escherichia coli JUHL; [30]): > 128 µg/mL
Compound: CC[C@H]1OC(=O)[C@H](C)[C@@H](O[C@H]2C[C@@](C)(OC)[C@@H](O)[C@H](C)O2)[C@H](C)[C@@H](O[C@@H]2O[C@H](C)C[C@H](N(C)C)[C@H]2O)[C@@H](C)C[C@@H](C)C(=O)[C@H](C)[C@@H](O)[C@H]1C [6-Deoxyerythromycin B]

MIC [2, 22]: 2 µg/mL (≈ 2.91 µM)
MIC [3, 23]: 0.25 µg/mL (≈ 0.363 µM)
MIC [4, 24]: 2 µg/mL (≈ 2.91 µM)
MIC [5, 25]: 2 µg/mL (≈ 2.91 µM)
MIC [6, 26]: 0.5 µg/mL (≈ 0.727 µM)
MIC [7, 27]: 2 µg/mL (≈ 2.91 µM)
MIC [8, 28]: 2 µg/mL (≈ 2.91 µM)
MIC [9, 29]: 0.25 µg/mL (≈ 0.363 µM)
MIC (Eschericha coli SS; Table 5): 2 µg/mL (≈ 2.91 µM)
MIC (Escherichia coli JUHL; [30]): > 128 µg/mL
Compound: CO[C@]1(C)C[C@H](O[C@H]2[C@H](C)[C@@H](O[C@@H]3O[C@H](C)C[C@H](N(C)C)[C@H]3O)[C@@H](C)C[C@@H](C)C(=O)[C@H](C)[C@@H](O)[C@@H](C)[C@@H](C)OC(=O)[C@@H]2C)O[C@@H](C)[C@@H]1O [6-Deoxy-15-norerythromycin B]

MIC [2, 22]: 0.25 µg/mL (≈ 0.348 µM)
MIC [3, 23]: 0.03 µg/mL (≈ 0.0418 µM)
MIC [4, 24]: 0.12 µg/mL (≈ 0.167 µM)
MIC [5, 25]: 0.25 µg/mL (≈ 0.348 µM)
MIC [6, 26]: 0.03 µg/mL (≈ 0.0418 µM)
MIC [7, 27]: 0.25 µg/mL (≈ 0.348 µM)
MIC [8, 28]: 0.25 µg/mL (≈ 0.348 µM)
MIC [9, 29]: 0.03 µg/mL (≈ 0.0418 µM)
MIC (Eschericha coli SS; Table 5): 2 µg/mL (≈ 2.79 µM)
MIC (Escherichia coli JUHL; [30]): 32 µg/mL (≈ 44.6 µM)
Compound: CC[C@H]1OC(=O)[C@H](C)[C@@H](O[C@H]2C[C@@](C)(OC)[C@@H](O)[C@H](C)O2)[C@H](C)[C@@H](O[C@@H]2O[C@H](C)C[C@H](N(C)C)[C@H]2O)[C@](C)(O)C[C@@H](C)C(=O)[C@H](C)[C@@H](O)[C@H]1C [Erythromycin B, reference compound]

MIC [2, 13]: 2 µg/mL (≈ 2.84 µM)
MIC [3, 14]: 0.25 µg/mL (≈ 0.355 µM)
MIC [4, 15]: 0.25 µg/mL (≈ 0.355 µM)
MIC [5, 16]: 4 µg/mL (≈ 5.68 µM)
MIC [6, 17]: 0.25 µg/mL (≈ 0.355 µM)
MIC [7, 18]: 2 µg/mL (≈ 2.84 µM)
MIC [8, 19]: 4 µg/mL (≈ 5.68 µM)
MIC [9, 20]: 0.5 µg/mL (≈ 0.71 µM)
MIC (Eschericha coli SS; Table 4): 16 µg/mL (≈ 22.7 µM)
MIC (Escherichia coli JUHL; [21]): > 128 µg/mL
Compound: CC[C@H]1OC(=O)[C@H](C)[C@@H](O[C@H]2C[C@@](C)(O)[C@@H](O)[C@H](C)O2)[C@H](C)[C@@H](O[C@@H]2O[C@H](C)C[C@H](N(C)C)[C@H]2O)[C@@H](C)C[C@@H](C)C(=O)[C@H](C)[C@@H](O)[C@]1(C)O [6-Deoxyerythromycin C]

Compound: CC[C@H]1OC(=O)[C@H](C)[C@@H](O[C@H]2C[C@@](C)(OC)[C@@H](O)[C@H](C)O2)[C@H](C)[C@@H](O[C@@H]2O[C@H](C)C[C@H](N(C)C)[C@H]2O)[C@](C)(O)C[C@@H](C)C(=O)[C@H](C)[C@@H](O)[C@]1(C)O [Erythromycin A, reference compound]
MIC ([2]; NCTC10649, read-out: MIC value, Table 4, brain heart infusion broth): 0.25 µg/mL (≈ 0.341 µM)
MIC ([2]; NCTC10649, read-out: MIC value, Table 5, brain heart infusion broth): 0.12 µg/mL (≈ 0.164 µM)
MIC ([3]; ATCC9341, read-out: MIC value, Table 4, brain heart infusion broth): 0.03 µg/mL (≈ 0.0409 µM)
MIC ([3]; ATCC9341, read-out: MIC value, Table 5, brain heart infusion broth): 0.015 µg/mL (≈ 0.0204 µM)
MIC ([4]; ATCC8043, read-out: MIC value, Table 4, brain heart infusion broth): 0.12 µg/mL (≈ 0.164 µM)
MIC ([4]; ATCC8043, read-out: MIC value, Table 5, brain heart infusion broth): 0.06 µg/mL (≈ 0.0818 µM)
MIC ([5]; Staphylococcus, 3519, read-out: MIC value, Table 4): 0.5 µg/mL (≈ 0.681 µM)
MIC ([5]; Staphylococcus, 3519, read-out: MIC value, Table 5): 0.12 µg/mL (≈ 0.164 µM)
MIC ([6]; CMX508, read-out: MIC value, Table 4, brain heart infusion broth): 0.06 µg/mL (≈ 0.0818 µM)
MIC ([6]; CMX508, read-out: MIC value, Table 5, brain heart infusion broth): 0.03 µg/mL (≈ 0.0409 µM)
MIC ([7]; read-out: MIC value, Table 4, brain heart infusion broth): 0.25 µg/mL (≈ 0.341 µM)
MIC ([7]; read-out: MIC value, Table 5, brain heart infusion broth): 0.12 µg/mL (≈ 0.164 µM)
MIC ([8]; CMX553, read-out: MIC value, Table 4, brain heart infusion broth): 0.25 µg/mL (≈ 0.341 µM)
MIC ([8]; CMX553, read-out: MIC value, Table 5, brain heart infusion broth): 0.12 µg/mL (≈ 0.164 µM)
MIC ([9]; EES61, read-out: MIC value, Table 4, brain heart infusion broth): 0.03 µg/mL (≈ 0.0409 µM)
MIC ([9]; EES61, read-out: MIC value, Table 5, brain heart infusion broth): 0.015 µg/mL (≈ 0.0204 µM)
MIC (Eschericha coli SS; Table 4): 1 µg/mL (≈ 1.36 µM)
MIC value (Eschericha coli SS; Table 5): 1 µg/mL (≈ 1.36 µM)
MIC (Escherichia coli JUHL; [21]): 64 µg/mL (≈ 87.2 µM)
MIC (Escherichia coli JUHL; [30]): 32 µg/mL (≈ 43.6 µM)
remaining at 2 min (physchem): < 10%
ED50 ([10]; C203, po, 144 h): 54.5 mg/kg
ED50 ([11]; Streptococcus pneumoniae, 6303, po, 144 h): 24.8 mg/kg
ED50 ([12]; Staphylococcus aureus, 10649, po, 144 h): 120 mg/kg
